Biological target: T1, human DGAT2 (hDGAT2) (Homo sapiens, UniProt Q96PD7)
T1 construct: made in house; host or cells: Sf-9 insect cells (baculovirus), membrane fraction
T1 sequence (Q96PD7 1-388): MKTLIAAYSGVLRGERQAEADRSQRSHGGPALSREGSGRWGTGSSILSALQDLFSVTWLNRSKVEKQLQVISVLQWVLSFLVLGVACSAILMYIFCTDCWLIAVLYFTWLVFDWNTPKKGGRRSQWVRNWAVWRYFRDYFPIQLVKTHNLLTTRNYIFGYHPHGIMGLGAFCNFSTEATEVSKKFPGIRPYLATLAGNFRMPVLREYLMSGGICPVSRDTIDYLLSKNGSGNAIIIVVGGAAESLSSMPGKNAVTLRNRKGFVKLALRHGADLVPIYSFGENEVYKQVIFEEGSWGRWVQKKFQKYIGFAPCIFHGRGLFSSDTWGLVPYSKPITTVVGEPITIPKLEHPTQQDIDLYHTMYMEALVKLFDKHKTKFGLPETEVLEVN
Experiment: DGAT2 Enzymatic Activity Assay
Assay type: biochemical
Details: membrane prep of Sf-9 cells expressing hDGAT2; 13C18-triolein product by LC/MS/MS; 25 μM diolein, 5 μM 13C oleoyl-CoA, rt
Procedure: Sf-9 insect cells were maintained in Grace's insect cell culture medium with 10% heated-inactivated fetal bovine serum, 1% Pluronic F-68 and 0.14 μg/ml Kanamycine sulfate at 27° C. in a shaker incubator. After infection with untagged baculovirus expressing human DGAT2 (hDGAT2) at multiplicity of infection (MOI) 3 for 48 hours, cells were harvested. Cell pellets were suspended in buffer containing 10 mM Tris-HCl pH 7.5, 1 mM EDTA, 250 mM sucrose and Complete Protease Inhibitor Cocktail (Sigma Aldrich), and sonicated on ice. Cell debris were removed by centrifugation at 2000×g for 15 minutes. Membrane fractions were isolated by ultracentrifugation (100,000×g), resuspended in the same buffer, and frozen (−80° C.) for later use. The protein concentration was determined with the Pierce™ BCA Protein Assay Kit (Thermo Fisher Scientific).
LC/MS/MS analyses were performed using Thermal Fisher's LX4-TSQ Vantage system. This system consists of an Agilent binary high-performance liquid chromatography (HPLC) pump and a TSQ Vantage triple quadrupole MS/MS instrument. For each sample, 2 μL samples from the top organic layer of in-plate liquid-liquid extraction were injected onto a Thermo Betabasic C4 column (2.1 mm×20 mm, 5 μm particle size). The samples were then eluted using the following conditions; mobile phase: Isopropanol:acetonitrile/10 mM ammonium formate=50/35/15 (v/v/v), flow rate: 0.8 mL/min, temperature: 25° C. Data was acquired in positive mode using a heated electrospray ionization (HESI) interface. The operational parameters for the TSQ Vantage MS/MS instrument were a spray voltage of 3000 V, capillary temperature of 280° C., vaporizer temperature 400° C., sheath gas 45 arbitrary unit. Aux gas 10 arbitrary units. […] The peak area was integrated by Xcalibur Quan software. The ratio between the ^13C18 triolein generated in the reaction and spiked in internal standard ^13C21-triolein was used to generate percentage inhibition and IC50 values. Compound percentage inhibition was calculated by the following formula: Inhibition %=1−[(compound response−low control)/(high control−low control)]×100%.
DGAT2 activity was determined by measuring the amount of enzymatic product ^13C18-triolein (^13C-1,2,3-Tri(cis-9-octadecenoyl)glycerol) using the membrane prep mentioned above. The assay was carried out in ABgene 384-well assay plates in a final volume of 25 μL at rt.

Compound | IC50
Cc1c(Oc2ncc(Cl)cc2OCC(C)(F)F)ccc2nc(C(=O)NC3(C)CCS(=O)(=O)CC3)cn12 [Example 31, 6-[[5-chloro-3-(2,2-difluoropropoxy)-2-pyridyl]oxy]-5-methyl-N-(4-methyl-1,1-dioxo-thian-4-yl)imidazo[1,2-a]pyridine-2-carboxamide] | 9.1 nM
CC1(NC(=O)c2cn3cc(Oc4ncc(F)cc4OCC(F)(F)F)ccc3n2)CS(=O)(=O)C1 [Example 32, 6-[[5-fluoro-3-(2,2,2-trifluoroethoxy)-2-pyridyl]oxy]-N-(3-methyl-1,1-dioxo-thietan-3-yl)imidazo[1,2-a]pyridine-2-carboxamide] | 31 nM
Cc1c(Oc2ncc(F)cc2OCC(F)(F)F)ccc2nc(C(=O)NC3(C)CCS(=O)(=O)CC3)cn12 [Example 34, 6-[[5-fluoro-3-(2,2,2-trifluoroethoxy)-2-pyridyl]oxy]-5-methyl-N-(4-methyl-1,1-dioxo-thian-4-yl)imidazo[1,2-a]pyridine-2-carboxamide] | 2.8 nM
CCOc1cccnc1Oc1ccc2nc(C(=O)N[C@@]3(C)CCS(=O)(=O)C3)cn2c1 [Example 35, 6-[(3-ethoxy-2-pyridyl)oxy]-N-[(3S)-3-methyl-1,1-dioxo-thiolan-3-yl]imidazo[1,2-a]pyridine-2-carboxamide] | 52 nM
Cc1c(Oc2ncccc2OCC(F)(F)F)ccc2nc(C(=O)NC3(C)CCS(=O)(=O)CC3)cn12 [Example 36, 5-methyl-N-(4-methyl-1,1-dioxo-thian-4-yl)-6-[[3-(2,2,2-trifluoroethoxy)-2-pyridyl]oxy]imidazo[1,2-a]pyridine-2-carboxamide] | 30 nM
CCOc1cccnc1Oc1ccc2nc(C(=O)NC3CC(C)(C)OC(C)(C)C3)cn2c1 [Example 38, 6-[(3-ethoxy-2-pyridyl)oxy]-N-(2,2,6,6-tetramethyltetrahydropyran-4-yl)imidazo[1,2-a]pyridine-2-carboxamide] | 56 nM
CC1(NC(=O)c2cn3c(F)c(Oc4ncccc4OCC(F)(F)F)ccc3n2)CCS(=O)(=O)CC1 [Example 39, 5-fluoro-N-(4-methyl-1,1-dioxo-thian-4-yl)-6-[[3-(2,2,2-trifluoroethoxy)-2-pyridyl]oxy]imidazo[1,2-a]pyridine-2-carboxamide] | 74 nM
Cc1c(Oc2nccnc2OCC(F)(F)F)cc(F)c2nc(C(=O)NC3(C)CCS(=O)(=O)CC3)cn12 [Example 44, 8-fluoro-5-methyl-N-(4-methyl-1,1-dioxo-thian-4-yl)-6-[3-(2,2,2-trifluoroethoxy)pyrazin-2-yl]oxy-imidazo[1,2-a]pyridine-2-carboxamide] | 68 nM
CCOc1cccnc1Oc1ccc2nc(C(=O)Nc3ccccc3)cn2c1 [Example 45, 6-[(3-ethoxy-2-pyridyl)oxy]-N-phenyl-imidazo[1,2-a]pyridine-2-carboxamide;2,2,2-trifluoroacetate] | 168 nM
Cc1c(Oc2nccnc2OCC(F)F)ccc2nc(C(=O)NC3(C)CCS(=O)(=O)CC3)cn12 [Example 46, 6-[3-(2,2-difluoroethoxy)pyrazin-2-yl]oxy-5-methyl-N-(4-methyl-1,1-dioxo-thian-4-yl)imidazo[1,2-a]pyridine-2-carboxamide] | 42 nM
CC(C)c1cc2nc(C(=O)NC3(C)CCS(=O)(=O)CC3)cn2cc1Oc1ncccc1OCC(F)(F)F [Example 48, 7-isopropyl-N-(4-methyl-1,1-dioxo-thian-4-yl)-6-[[3-(2,2,2-trifluoroethoxy)-2-pyridyl]oxy]imidazo[1,2-a]pyridine-2-carboxamide] | 59 nM
CC(C)c1c(Oc2ncc(Cl)cc2OCC(F)(F)F)ccc2nc(C(=O)NC3(C)CCS(=O)(=O)CC3)cn12 [Example 49, 6-[[5-chloro-3-(2,2,2-trifluoroethoxy)-2-pyridyl]oxy]-5-isopropyl-N-(4-methyl-1,1-dioxo-thian-4-yl)imidazo[1,2-a]pyridine-2-carboxamide] | 12 nM
CC1(CNC(=O)c2cn3cc(Oc4ncc(Cl)cc4OCC(F)(F)F)ccc3n2)CCS(=O)(=O)CC1 [Example 50, 6-[[5-chloro-3-(2,2,2-trifluoroethoxy)-2-pyridyl]oxy]-N-[(4-methyl-1,1-dioxo-thian-4-yl)methyl]imidazo[1,2-a]pyridine-2-carboxamide] | 174 nM
CCOc1cccnc1Oc1ccc2nc(C(=O)N[C@H]3CCOC3)cn2c1 [Example 52, 6-[(3-ethoxy-2-pyridyl)oxy]-N-[(3S)-tetrahydrofuran-3-yl]imidazo[1,2-a]pyridine-2-carboxamide] | 814 nM
CCOc1cccnc1Oc1ccc2nc(C(=O)Nc3cccnc3)cn2c1 [Example 54, 6-[(3-ethoxy-2-pyridyl)oxy]-N-(3-pyridyl)imidazo[1,2-a]pyridine-2-carboxamide] | 850 nM

Next, values leading:

IC50 | Compound
6.2 nM | Cc1cc2nc(C(=O)NC3(C)CCS(=O)(=O)CC3)cn2cc1Oc1ncc(Cl)cc1OCC(F)(F)F [Example 30, 6-[[5-chloro-3-(2,2,2-trifluoroethoxy)-2-pyridyl]oxy]-7-methyl-N-(4-methyl-1,1-dioxo-thian-4-yl)imidazo[1,2-a]pyridine-2-carboxamide]
5.3 nM | Cc1c(Oc2ncc(F)cc2OCC2(F)CC2)ccc2nc(C(=O)NC3(C)CCS(=O)(=O)CC3)cn12 [Example 33, 6-[[5-fluoro-3-[(1-fluorocyclopropyl)methoxy]-2-pyridyl]oxy]-5-methyl-N-(4-methyl-1,1-dioxo-thian-4-yl)imidazo[1,2-a]pyridine-2-carboxamide]
124 nM | CCOc1cccnc1Oc1ccc2nc(C(=O)N[C@@H]3CCCC[C@@H]3O)cn2c1 [Example 37]
52 nM | Cc1cc2nc(C(=O)NC3(C)CCS(=O)(=O)CC3)cn2c(C)c1Oc1ncc(F)cc1OCC(C)(F)F [Example 40, 6-[[3-(2,2-difluoropropoxy)-5-fluoro-2-pyridyl]oxy]-5,7-dimethyl-N-(4-methyl-1,1-dioxo-thian-4-yl)imidazo[1,2-a]pyridine-2-carboxamide]
74 nM | Cc1cc2nc(C(=O)NC3(C)CCS(=O)(=O)CC3)cn2cc1Oc1ncc(Cl)cc1OCC1(F)COC1 [Example 41, 6-[[5-chloro-3-[(3-fluorooxetan-3-yl)methoxy]-2-pyridyl]oxy]-7-methyl-N-(4-methyl-1,1-dioxo-thian-4-yl)imidazo[1,2-a]pyridine-2-carboxamide]
50 nM | CC1(CNC(=O)c2cn3cc(Oc4ncc(Cl)cc4OCC(F)(F)F)ccc3n2)CS(=O)(=O)C1 [Example 42, 6-[[5-chloro-3-(2,2,2-trifluoroethoxy)-2-pyridyl]oxy]-N-[(3-methyl-1,1-dioxo-thietan-3-yl)methyl]imidazo[1,2-a]pyridine-2-carboxamide]
122 nM | CC(C)c1cc2nc(C(=O)NC3(C)CCS(=O)(=O)CC3)cn2cc1Oc1ncc(Cl)cc1OCC(F)(F)F [Example 43, 6-[[5-chloro-3-(2,2,2-trifluoroethoxy)-2-pyridyl]oxy]-7-isopropyl-N-(4-methyl-1,1-dioxo-thian-4-yl)imidazo[1,2-a]pyridine-2-carboxamide]
8.7 nM | CC(F)(F)COc1cc(F)cnc1Oc1cn2cc(C(=O)NC3(C)CCS(=O)(=O)CC3)nc2cc1F [Example 47, 6-((3-(2,2-difluoropropoxy)-5-fluoropyridin-2-yl)oxy)-7-fluoro-N-(4-methyl-1,1-dioxidotetrahydro-2H-thiopyran-4-yl)imidazo[1,2-a]pyridine-2-carboxamide]
123 nM | O=C(NC1CCOc2c(F)cc(F)cc21)c1cn2cc(Oc3ncccc3OCC(F)(F)F)ccc2n1 (stereo not shown) [Example 51, N-(6,8-difluorochroman-4-yl)-6-[[3-(2,2,2-trifluoroethoxy)-2-pyridyl]oxy]imidazo[1,2-a]pyridine-2-carboxamide]
346 nM | CCOc1cccnc1Oc1ccc2nc(C(=O)NCc3ccccc3)cn2c1 [Example 53, N-benzyl-6-[(3-ethoxy-2-pyridyl)oxy]imidazo[1,2-a]pyridine-2-carboxamide]

Reference: patent publication US20260176267A1, “PREPARATION OF IMIDAZOPYRIDINE AND IMIDAZOPYRIDAZINE DERIVATIVES AS NOVEL DIACYLGLYCERIDE O-ACYLTRANSFERASE 2 INHIBITORS” (Merck Sharp & Dohme LLC, priority 2022, published 2026)
